The text below walks through data of publication PMC5384001 (Scientific Reports, 2017).

Structures are written as SMILES.

For this test, the target named is T1, GluD2-Lc(D542Y)-(HS2)GluN1 (Rattus norvegicus, UniProt Q63226, A654T/A766F/D542Y/D767R/N763E/R768S/T764L/V761T/V765F).
T1 construct: the function of full-length receptors as well, we introduced them into the GluD2 lurcher mutant (GluD2-Lc); expressed in transfected cells; host or cells: Xenopus laevis oocytes injected with cRNA
T1 sequence (Q63226 24-1007 D542Y/A654T/V761T/N763E/T764L/V765F/A766F/D767R/R768S): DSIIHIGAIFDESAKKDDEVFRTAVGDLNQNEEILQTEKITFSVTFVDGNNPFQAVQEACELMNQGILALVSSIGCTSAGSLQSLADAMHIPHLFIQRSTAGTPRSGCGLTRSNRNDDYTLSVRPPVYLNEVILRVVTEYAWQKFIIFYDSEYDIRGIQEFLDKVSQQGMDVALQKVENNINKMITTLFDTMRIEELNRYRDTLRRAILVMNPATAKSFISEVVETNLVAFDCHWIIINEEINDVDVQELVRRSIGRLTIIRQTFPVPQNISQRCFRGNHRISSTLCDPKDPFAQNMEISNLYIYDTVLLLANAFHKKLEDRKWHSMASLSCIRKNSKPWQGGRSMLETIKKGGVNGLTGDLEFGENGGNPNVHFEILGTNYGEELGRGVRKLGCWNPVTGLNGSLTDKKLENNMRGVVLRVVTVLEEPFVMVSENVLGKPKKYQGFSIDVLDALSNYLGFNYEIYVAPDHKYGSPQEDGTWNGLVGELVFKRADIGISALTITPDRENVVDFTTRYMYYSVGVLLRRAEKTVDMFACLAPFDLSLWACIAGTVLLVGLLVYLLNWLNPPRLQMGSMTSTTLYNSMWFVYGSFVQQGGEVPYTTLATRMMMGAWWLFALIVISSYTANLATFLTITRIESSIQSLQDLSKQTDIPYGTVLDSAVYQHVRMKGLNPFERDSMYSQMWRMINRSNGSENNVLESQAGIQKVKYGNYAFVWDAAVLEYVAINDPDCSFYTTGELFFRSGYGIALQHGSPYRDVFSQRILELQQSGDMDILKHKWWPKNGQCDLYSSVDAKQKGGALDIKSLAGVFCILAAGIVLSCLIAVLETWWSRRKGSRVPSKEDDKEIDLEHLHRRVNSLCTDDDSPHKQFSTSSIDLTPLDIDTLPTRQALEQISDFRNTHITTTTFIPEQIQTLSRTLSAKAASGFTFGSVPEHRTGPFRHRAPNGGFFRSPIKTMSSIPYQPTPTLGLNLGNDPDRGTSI
Put plainly: Two-electrode voltage clamp in Xenopus oocytes, inhibition of spontaneous currents. It counts as cell-based. From the text: All cDNAs for expression in Xenopus oocytes were cloned into the vector pSGEM[30]. Point mutants of GluD2-Lc were constructed by overlap extension PCR with mutagenic oligonucleotide primers. The GluD2-Lc-(H)GluN1 chimera was constructed by transferring the S1- and S2-encoding sequences from GluD2-LBD-(H)GluN1 to GluD2-Lc via overlap extension PCR using tail primers. The S1 and S2 sequences were transferred separately, yielding GluD2-Lc-(HS1)GluN1 and GluD2-Lc-(HS2)GluN1 constructs. GluD2-Lc-(H)GluN1 was then produced from these by another overlap extension PCR. Complementary RNA (cRNA) for injection into oocytes was synthesised from 1 μg of linearised template DNA with the mMESSAGE mMACHINE in vitro transcription kit (Ambion, Austin, TX, USA).
Oocytes were obtained by surgically removing parts of the ovaries from Xenopus laevis (Nasco, Fort Atkinson, WI, USA) anaesthetised with 1.5 g/L 3-aminobenzoic acid ethylester (Sigma, Taufkirchen, Germany). The ovary clippings were digested with 784 U/mL (4 mg/mL) collagenase type I (Worthington, Lakewood, NJ, USA) in Ca^2+-free Barth’s solution (88 mM NaCl, 1.1 mM KCl, 2.4 mM NaHCO3, 0.8 mM MgSO4, 15 mM HEPES-NaOH, pH 7.6) with gentle agitation for 1.5–2 h at 20 °C to remove the follicular cell layer. After stopping the collagenase digestion by washing with Barth’s solution (88 mM NaCl, 1.1 mM KCl, 2.4 mM NaHCO3, 0.3 mM Ca(NO3)2, 0.4 mM CaCl2, 0.8 mM MgSO4, 15 mM HEPES-NaOH, pH 7.6), defolliculated oocytes of stages V and VI were selected and maintained at 16 °C in Barth’s solution supplemented with 100 μg/mL gentamicin, 40 μg/mL streptomycin, and 63 μg/mL penicillin. Oocytes were injected with 11 ng cRNA (10 ng of each cRNA for co-expression of GluN1 and GluN2A) using a nanoliter injector (WPI, Sarasota, FL, USA). Four days after cRNA injection, current responses were recorded under voltage clamp at –70 mV with a Turbo Tec-10CD amplifier (npi electronic, Tamm, Germany) controlled by Patchmaster software (HEKA, Lambrecht, Germany). Currents were filtered with a 20 Hz low-pass filter and then digitised with a sampling rate of 50 Hz. Recording electrodes were pulled from borosilicate glass (Hilgenberg, Malsfeld, Germany) with an L/M-3P-A vertical pipette puller (List-Medical), filled with 3 M KCl, and had resistances of 0.5–5 MΩ (voltage electrode) or 0.5–1.5 MΩ (current electrode). Recordings were performed in a 50 μL chamber under constant superfusion with extracellular solution at a flow rate of 3–5 mL/min. […] Finally, Ba-NFR and then NMDGR were applied again to check for reversibility.
Background: In two-electrode clamp one electrode senses voltage and the other passes current.

With `N[C@H](CO)C(=O)O` [D-serine], the “D-serine efficacy Mean ± SEM” value (fraction of spontaneous current inhibited by D-serine) is “–3.4 ± 0.5%”. Also, under “inhibition of spontaneous currents”, the “sensitivity to D-serine” value is on record as “insensitive”.
